Measurements taken from patent US11786534B2 (TAIHO PHARMACEUTICAL CO., LTD., priority 2019, dated 2023).

Experiments:
Assay type in all cases: biochemical
[1] = target: T1, human EGFR (d746-750/T790M/C797S) (Homo sapiens, UniProt P00533, C797S/DEL746-750/T790M); experiment: Inhibitory activity against EGFR (d746-750/T790M/C797S) kinase
T1 construct: made in house; host or cells: Sf9 insect cells, baculovirus
Method: 1) Measurement of inhibitory activity against EGFR (d746-750/T790M/C797S) kinase
The compounds of the above examples and comparative examples were measured for their inhibitory activity against EGFR (d746-750/T790M/C797S) kinase activity. Among the materials required for measurement of this inhibitory activity, the kinase protein (SEQ ID NO: 1) used was prepared as follows: the cytoplasmic domain of human EGFR (d746-750/T790M/C797S) fused at the ammo terminal end with a glutathione-S-transferase (GST) tag was expressed M insect cells (Sf9) by the baculovirus expression system and then purified an a glutathione sepharose column. For use as a substrate peptide, a peptide biotinylated at the N-terminal end (biotin -EEPLYWSFPAKKK) was synthesized by reference to Perkin Elmer LabChip® series reagent FL-Peptide 22.
Procedures for measurement of the inhibitory activity are as follows. First, the compounds of the present invention were each dissolved in dimethyl sulfoxide (DMSO), and their serial dilutions were then prepared with DMSO. Secondly, each compound serial dilution (final concentration of DMSO during kinase reaction: 2.5%) or DMSO (final concentration: 2.5%) was mixed with a solution containing the substrate peptide (final concentration: 250 nM), magnesium chloride (final concentration: 10 mM), manganese chloride (final concentration: 10 mM) and ATP (final concentration: 6 μM) in a kinase reaction buffer (Carna Biosciences Inc., Japan), and the EGFR (d746-750/T790M/C797S) protein was further added thereto, followed by incubation at 25° C. for 120 minutes to cause kinase reaction. To the reaction solution, EDTA was added to give a final concentration of 24 mM to thereby stop the reaction, followed by addition of a phospholylated tyrosine detection solution containing europium-labeled anti-phosphorylated tyrosine antibody PT66 (Perkin Elmer) and SureLight APC-SA (Perkin Elmer). The reaction solution was allowed to stand at room temperature for 2 hours or longer. As a background, DMSO was used instead of each compound solution in .DMSO, and EDIA was added prior to the addition of the EGFR EGFR (d746-750/T790M/C797S) protein, followed by incubation at 25° C. for 120 minutes. The same detection solution was also added to this reaction solution, which was then allowed to stand for 2 hours or longer. Finally, all the test samples were measured with a PHERAstar FS reader (BMG LABTECH) for their fluorescence intensity at two wavelengths of 620 nm and 665 nm upon irradiation with an excitation light of 337 nm wavelength, and the ratio of fluorescence intensities at these two wavelengths was obtained as data for each compound.
Moreover, as control compounds, the above Comparative Example A (Example 3 in WO2013/118817) and Comparative Example B (Example 35 in WO2013/118817) known to have EGFR inhibitory activity were used.
In accordance with the same procedures as shown in 1) in Test Example 1, the compounds of the above examples were measured for their inhibitory activity against EGFR (d746-750/T790M/C797S) kinase activity.

[2] = target: T2, human EGFR (d746-750/C797S) (Homo sapiens, UniProt P00533, C797S/DEL746-750); experiment: Inhibitory activity against EGFR (d746-750/C797S) kinase
T2 construct: purchased SignalChem
Method: 3) Measurement of inhibitory activity against EGFR (d746-750/C797S) kinase
The compounds of the present invention were measured for their inhibitory activity against EGFR (d746-750/C797S) kinase activity.
The materials, measurement procedures and data analysis method used in this test are substantially the same as those shown in the section “Measurement of inhibitory activity aiainst EGFR (d746-750/T790M/C797S) kinase.” However, among the materials, the kinase protein used was a purified recombinant human EGFR (d746-750/C797S) protein purchased from SignalChem, while the kinase reaction buffer used was 13.5 mM Tris (pH 7.5) containing 2 mM dithiothreitol and 0.009% Tween-20. In the measurement procedures, the final concentration of ATP was set to 14 μM, the final concentration of maganesium chloride was set to 20 mM, the final concentration of manganese chloride was set to 12.5 mM, the incubation time for kinase reaction was set to 60 minutes, and the final concentration of EDTA used to stop the kinase reaction was set to 40 mM. Finally, data analysis was conducted to determine to IC50 value (nM) of each compound against EGFR (d746-750/C797S).
In accordance with the same procedures as shown in 3) in Test Example 1, the compounds of the present invention were measured for their inhibitory activity against EGFR (d746-750/C797S) kinase activity.

[3] = target: T3, human EGFR (L858R/C797S) (Homo sapiens, UniProt P00533, C797S/L858R); experiment: Inhibitory activity against EGFR (L858R/C797S) kinase; details: Test Example 1, Table 5; ATP 4 μM, 90 minutes
T3 construct: purchased SignalChem
Method: 4) Measurement of inhibitory activity against EGFR (L858R/C797S) kinase
The compounds of the present invention were measured for their inhibitory activity aeainst EGFR (L858R/C797S) kinase activity.
The materials, measurement procedures and data analysis method used in this test are stibstantially the same as those shown in the section “Measurement of inhibitory activity against EGFR (d746-750/C797S) kinase.” However, among the materials, the kinase protein used was a purified recombinant human EGFR (C797S/L858R) protein purchased from SignalChem. In the measurement procedures, the final concentration of ATP was set to 4 μM, and the incubation time for kinase reaction was set to 90 minutes. Finally, data analysis was conducted determine the IC50 value (nM) of each compound against EGFR (L858R/C797S).
In accordance with the same procedures as shown in 4) in Test Example 1, the compounds of the present invention were measured for their inhibitor activity against. EGFR (L858R/C797S) kinase activity.

[4] = target: T4, human EGFR (WT) (Homo sapiens, UniProt P00533); experiment: Inhibitory activity against EGFR (WT) kinase
T4 construct: purchased Carna Biosciences Inc., Japan
Method: The compounds of the present invention were measured for their inhibitory activity nainst EGFR (WT) kinase activity.
The materials, measurement procedures and data analysis method used in this test. are substantially the same as those shown in the section “Measurement of inhibitory activity against EGFR (d746-750/T790M/C797S) kinase.” However, among the materials, the kinase protein used was a purified recombinant human EGFR (WT) purchased from Carna Biosciences Inc., Japan. In the measurement procedures, the final concentration of ATP was set to 1.5 μM. Finally, data analysis was conducted to determine the IC50 value (nM) of each compound against EGFR (WT).
In accordance with the same procedures as shown in 5) in Test Example 1, the compounds of the present invention were measured for their inhibitory activity against. EGFR (WT) kinase activity.

[5] = target: T5, human EGFR (L858R/T790M/C797S) (Homo sapiens, UniProt P00533, C797S/L858R/T790M); experiment: Inhibitory activity against EGFR (L858R/T790M/C797S) kinase; details: Test Example 3, Table 9; same procedures as 2) in Test Example 1
T5 construct: made in house; host or cells: Sf9 insect cells, baculovirus
Method: 2) Measurement of inhibitory activity against EGFR (L858R/T790M/C797S) kinase
The compounds of the presein invention were measured for their inhibitory activity against EGFR (L858R/T790M/C797S) kinase activity.
The materials, measurement procedures and data analysis method used in this test are substantially the same as those shown in the section “Measurement of inhibitory activity against EGFR (d746-750/T790M/C797S) kinase.” However, among the materials, the kinase protein (SEQ ID NO: 2) used was prepared as follows: the cytoplasmic domain of human EGFR (L858R/T790M/C797S) fused at the amino terminal end with a GST tag was expressed in insect cells (Sf9) by the baculovirus expression system and then purified on a glutathione sepharose column. In the measurement procedures, the final concentration of ATP was set to 0.5 μM. Finally, data analysis was conducted to determine the IC50 value (nM) of each compound against EGFR (L858R/T790M/C797S).
In accordance with the same procedures as shown in 2) in Test Example 1, the compounds of the present invention were measured for their inhibitory activity against EGFR (L858R/T790M/C797S) kinase activity.

[6] = Test Example 1, Table 2, ATP 6 μM, 25° C., 120 minutes
[7] = Test Example 1, Table 4, ATP 14 μM, 60 minutes
[8] = Test Example 1, Table 6, ATP 1.5 μM

T4 sequence (P00533 25-1210): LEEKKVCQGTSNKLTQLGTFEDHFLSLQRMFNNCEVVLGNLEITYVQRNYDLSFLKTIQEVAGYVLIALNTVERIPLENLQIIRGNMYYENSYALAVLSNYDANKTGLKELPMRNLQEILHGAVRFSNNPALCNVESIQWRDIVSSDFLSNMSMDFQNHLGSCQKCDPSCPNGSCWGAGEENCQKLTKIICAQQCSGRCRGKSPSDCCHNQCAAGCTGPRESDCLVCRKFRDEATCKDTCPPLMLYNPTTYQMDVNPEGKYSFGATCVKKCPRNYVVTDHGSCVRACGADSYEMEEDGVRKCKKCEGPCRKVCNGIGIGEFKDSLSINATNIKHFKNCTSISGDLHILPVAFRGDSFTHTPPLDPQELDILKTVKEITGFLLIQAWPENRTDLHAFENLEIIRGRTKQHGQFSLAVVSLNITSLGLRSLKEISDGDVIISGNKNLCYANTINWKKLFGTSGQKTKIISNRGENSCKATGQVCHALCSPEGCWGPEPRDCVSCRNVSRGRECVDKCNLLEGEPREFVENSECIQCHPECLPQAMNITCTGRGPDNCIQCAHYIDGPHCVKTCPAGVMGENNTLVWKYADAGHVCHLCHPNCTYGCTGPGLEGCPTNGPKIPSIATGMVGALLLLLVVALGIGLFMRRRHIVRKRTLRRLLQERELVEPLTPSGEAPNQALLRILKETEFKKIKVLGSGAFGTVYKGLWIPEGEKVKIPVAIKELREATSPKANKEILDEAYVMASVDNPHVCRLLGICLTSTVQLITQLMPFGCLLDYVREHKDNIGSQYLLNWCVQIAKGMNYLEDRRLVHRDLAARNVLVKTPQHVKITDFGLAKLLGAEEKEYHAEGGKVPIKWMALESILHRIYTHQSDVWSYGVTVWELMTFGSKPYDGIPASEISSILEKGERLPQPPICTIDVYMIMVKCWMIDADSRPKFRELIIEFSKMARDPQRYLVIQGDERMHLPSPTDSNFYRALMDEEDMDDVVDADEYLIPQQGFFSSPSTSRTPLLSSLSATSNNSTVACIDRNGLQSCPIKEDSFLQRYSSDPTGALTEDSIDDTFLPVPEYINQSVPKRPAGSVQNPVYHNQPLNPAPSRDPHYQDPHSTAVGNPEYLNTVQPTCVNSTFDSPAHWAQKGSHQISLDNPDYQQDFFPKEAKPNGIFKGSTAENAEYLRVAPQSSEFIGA
T3 sequence (P00533 25-1210 C797S/L858R): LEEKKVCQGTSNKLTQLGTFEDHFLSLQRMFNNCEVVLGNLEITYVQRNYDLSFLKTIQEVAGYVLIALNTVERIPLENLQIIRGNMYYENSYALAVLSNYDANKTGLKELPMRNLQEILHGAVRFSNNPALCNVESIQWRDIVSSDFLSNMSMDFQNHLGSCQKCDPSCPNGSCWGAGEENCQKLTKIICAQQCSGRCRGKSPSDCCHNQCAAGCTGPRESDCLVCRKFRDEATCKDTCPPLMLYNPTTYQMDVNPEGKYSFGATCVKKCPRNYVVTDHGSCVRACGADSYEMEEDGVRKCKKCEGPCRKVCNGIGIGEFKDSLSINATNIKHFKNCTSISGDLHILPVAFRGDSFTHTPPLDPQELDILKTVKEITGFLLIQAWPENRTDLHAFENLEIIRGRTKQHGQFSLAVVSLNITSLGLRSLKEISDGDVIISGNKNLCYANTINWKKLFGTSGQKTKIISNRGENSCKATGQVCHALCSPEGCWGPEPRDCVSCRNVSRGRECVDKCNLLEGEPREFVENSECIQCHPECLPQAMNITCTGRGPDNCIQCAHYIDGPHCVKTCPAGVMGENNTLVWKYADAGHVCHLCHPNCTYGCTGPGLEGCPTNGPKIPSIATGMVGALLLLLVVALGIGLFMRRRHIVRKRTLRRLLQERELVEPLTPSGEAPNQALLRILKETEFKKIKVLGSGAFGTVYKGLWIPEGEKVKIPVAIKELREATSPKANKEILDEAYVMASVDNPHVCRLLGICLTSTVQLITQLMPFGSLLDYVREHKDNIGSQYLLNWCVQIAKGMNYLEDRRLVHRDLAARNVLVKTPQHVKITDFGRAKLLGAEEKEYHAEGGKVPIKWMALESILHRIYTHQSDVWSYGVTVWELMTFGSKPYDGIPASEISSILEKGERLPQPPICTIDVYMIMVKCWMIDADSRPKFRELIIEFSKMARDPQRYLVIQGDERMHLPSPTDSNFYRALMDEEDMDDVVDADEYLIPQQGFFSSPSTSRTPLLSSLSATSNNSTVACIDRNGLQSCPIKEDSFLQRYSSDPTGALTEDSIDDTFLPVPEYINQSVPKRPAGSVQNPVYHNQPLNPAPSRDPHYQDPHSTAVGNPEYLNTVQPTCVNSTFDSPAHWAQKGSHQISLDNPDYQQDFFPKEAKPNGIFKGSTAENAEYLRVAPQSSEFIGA
T1 sequence (P00533 with tags, fused parts or gaps DEL746-750/T790M/C797S): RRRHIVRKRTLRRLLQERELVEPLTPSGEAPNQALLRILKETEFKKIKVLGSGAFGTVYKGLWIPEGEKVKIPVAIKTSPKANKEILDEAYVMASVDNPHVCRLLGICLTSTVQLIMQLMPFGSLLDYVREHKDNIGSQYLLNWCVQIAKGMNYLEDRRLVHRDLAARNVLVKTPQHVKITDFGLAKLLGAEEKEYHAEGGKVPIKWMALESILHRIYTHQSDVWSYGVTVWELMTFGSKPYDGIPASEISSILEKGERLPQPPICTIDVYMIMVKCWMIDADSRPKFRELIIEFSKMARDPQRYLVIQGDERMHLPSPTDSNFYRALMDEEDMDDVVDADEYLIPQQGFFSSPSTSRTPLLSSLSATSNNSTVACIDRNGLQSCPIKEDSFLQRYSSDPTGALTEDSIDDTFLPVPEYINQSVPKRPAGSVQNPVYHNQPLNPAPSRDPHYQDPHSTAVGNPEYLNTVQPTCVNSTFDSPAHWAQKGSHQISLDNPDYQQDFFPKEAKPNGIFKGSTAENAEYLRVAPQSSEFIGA
T2 sequence (P00533 with tags, fused parts or gaps DEL746-750/C797S): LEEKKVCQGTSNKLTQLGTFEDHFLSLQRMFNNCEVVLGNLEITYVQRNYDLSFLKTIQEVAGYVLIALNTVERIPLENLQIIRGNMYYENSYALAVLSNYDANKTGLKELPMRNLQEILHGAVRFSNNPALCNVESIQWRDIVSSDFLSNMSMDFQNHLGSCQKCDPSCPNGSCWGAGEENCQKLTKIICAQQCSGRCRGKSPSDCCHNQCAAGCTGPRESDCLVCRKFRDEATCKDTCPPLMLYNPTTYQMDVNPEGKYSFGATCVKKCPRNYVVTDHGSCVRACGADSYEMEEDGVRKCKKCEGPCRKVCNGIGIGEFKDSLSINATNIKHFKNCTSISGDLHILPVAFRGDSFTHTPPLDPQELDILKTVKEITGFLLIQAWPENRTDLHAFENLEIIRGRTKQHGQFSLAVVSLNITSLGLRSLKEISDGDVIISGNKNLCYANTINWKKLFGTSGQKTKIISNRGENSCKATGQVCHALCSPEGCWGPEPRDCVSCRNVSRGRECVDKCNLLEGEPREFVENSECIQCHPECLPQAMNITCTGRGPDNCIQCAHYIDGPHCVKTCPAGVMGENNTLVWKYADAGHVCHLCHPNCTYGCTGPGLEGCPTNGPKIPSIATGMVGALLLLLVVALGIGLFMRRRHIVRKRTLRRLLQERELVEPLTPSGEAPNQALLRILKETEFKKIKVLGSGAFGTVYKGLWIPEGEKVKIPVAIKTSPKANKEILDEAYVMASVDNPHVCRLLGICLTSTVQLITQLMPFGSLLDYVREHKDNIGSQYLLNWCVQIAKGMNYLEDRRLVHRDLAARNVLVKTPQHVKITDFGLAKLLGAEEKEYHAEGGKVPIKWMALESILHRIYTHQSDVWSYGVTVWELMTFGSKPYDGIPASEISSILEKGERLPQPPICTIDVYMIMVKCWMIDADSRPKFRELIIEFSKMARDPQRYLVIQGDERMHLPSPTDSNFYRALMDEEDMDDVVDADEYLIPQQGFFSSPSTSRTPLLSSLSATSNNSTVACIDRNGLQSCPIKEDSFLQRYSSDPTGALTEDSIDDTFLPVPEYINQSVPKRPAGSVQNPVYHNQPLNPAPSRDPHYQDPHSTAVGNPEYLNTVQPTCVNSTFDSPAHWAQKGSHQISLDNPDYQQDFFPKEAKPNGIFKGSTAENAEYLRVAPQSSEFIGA
T5 sequence (P00533 with tags, fused parts or gaps T790M/C797S/L858R): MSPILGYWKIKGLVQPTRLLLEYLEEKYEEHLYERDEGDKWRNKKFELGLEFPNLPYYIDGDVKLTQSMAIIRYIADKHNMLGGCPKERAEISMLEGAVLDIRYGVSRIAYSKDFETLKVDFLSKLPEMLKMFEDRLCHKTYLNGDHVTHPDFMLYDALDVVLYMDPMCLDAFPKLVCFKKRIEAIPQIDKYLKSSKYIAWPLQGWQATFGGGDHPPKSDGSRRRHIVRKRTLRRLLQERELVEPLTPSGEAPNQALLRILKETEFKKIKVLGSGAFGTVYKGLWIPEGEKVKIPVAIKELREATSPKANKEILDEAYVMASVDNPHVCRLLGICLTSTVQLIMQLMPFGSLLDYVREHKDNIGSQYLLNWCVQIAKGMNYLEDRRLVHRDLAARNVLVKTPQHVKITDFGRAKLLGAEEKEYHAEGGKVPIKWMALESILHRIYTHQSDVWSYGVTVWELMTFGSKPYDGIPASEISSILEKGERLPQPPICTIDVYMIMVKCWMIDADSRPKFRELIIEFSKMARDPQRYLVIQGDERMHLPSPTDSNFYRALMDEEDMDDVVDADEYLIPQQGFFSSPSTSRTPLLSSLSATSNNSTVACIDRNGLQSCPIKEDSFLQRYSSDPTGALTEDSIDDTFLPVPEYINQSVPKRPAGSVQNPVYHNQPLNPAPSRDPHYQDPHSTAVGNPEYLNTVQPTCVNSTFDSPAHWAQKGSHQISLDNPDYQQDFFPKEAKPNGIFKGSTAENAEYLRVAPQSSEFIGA

`C#Cc1c(-c2cnc3ccccc3c2)c2c(N)ncnc2n1C12CCC(NC(=S)N3CC4(CN(C)C4)C3)(CC1)CC2` [Example 56] gave an IC50 [1, 6] of under 0.3 nM, an IC50 [2, 7] of 0.84 nM and an IC50 [3] of 0.9 nM. For the same compound, the IC50 [4, 8] was 0.94 nM.
Work on `C#Cc1c(-c2cnc3ccccc3c2)c2c(N)ncnc2n1C12CCC(CN(C)C)(CC1)C2` [Example 40, 7-(4-((Dimethylamino)methyl)bicyclo[2.2.1]heptan-1-yl)-6-ethynyl-5-(quinolin-3-yl) -7H-pyrrolo[2,3-d]pyrimidine-4-amine] yielded an IC50 [1, 6] of under 0.3 nM, an IC50 [2, 7] of 2.6 nM and an IC50 [3] of 4 nM. It also gave an IC50 [4, 8] of 5 nM.
`C#Cc1c(-c2cnc3ccccc3c2)c2c(N)ncnc2n1C12CCC(NCc3cccnc3)(CC1)CC2` [Example 8, 6-Ethynyl-7-(4-((pyridin-3-ylmethyl)amino)bicyclo[2.2.2]octan-1-yl)-5-(quinolin-3-yl) -7H-pyrrolo[2,3-d]pyrimidine-4-amine] showed an IC50 [1, 6] of under 0.3 nM, an IC50 [2, 7] of 0.73 nM and an IC50 [3] of 1.4 nM. For the same compound, the IC50 [4, 8] was 3.2 nM.
`C#Cc1c(-c2cnc3ccccc3c2)c2c(N)ncnc2n1C12CCC(NC(=O)[C@@H]3CNCCO3)(CC1)C2` [Example 62, (S)-N-(4-(4-Amino-6-ethynyl-5-(quinolin-3-yl)-7H-pyrrolo[2,3-d]pyrimidin-7-yl) -bicyclo[2.2.1]heptan-1-yl)morpholine-2-carboxamide] was tested, and the IC50 ([1]; Test Example 3, Table 8; same procedures as 1) in Test Example 1) was under 0.3 nM, the IC50 [5] was under 0.3 nM and the IC50 ([2]; Test Example 3, Table 10; same procedures as 3) in Test Example 1) was 0.34 nM. It also gave an IC50 ([4]; Test Example 3, Table 12; same procedures as 5) in Test Example 1) of 1.6 nM.
`C#Cc1c(-c2cnc3ccccc3c2)c2c(N)ncnc2n1C12CCC(NC(=O)n3cccn3)(CC1)C2` [Example 21, N-(4-(4-Amino-6-ethynyl-5-(quinolin-3-yl)-7H-pyrrolo[2,3-d]pyrimidin-7-yl)bicyclo-[2.2.1]heptan-1-yl)-1H-pyrazole-1-carboxamide] gave an IC50 [1, 6] of under 0.3 nM, an IC50 [2, 7] of 0.78 nM and an IC50 [3] of 0.98 nM. It also gave an IC50 [4, 8] of 1.7 nM.
`C#Cc1c(-c2cnc3ccccc3c2)c2c(N)ncnc2n1C12CCC(N3CCN(C)C(=O)C3)(CC1)C2` [Example 5, 4-(4-(4-Amino-6-ethynyl-5-(quinolin-3-yl)-7H-pyrrolo[2,3-d]pyrimidin-7-yl)bicyclo-[2.2.1]heptan-1-yl)-1-methylpiperazin-2-one] showed an IC50 [1, 6] of 0.32 nM, an IC50 [2, 7] of 1.2 nM and an IC50 [3] of 2.8 nM. For the same compound, the IC50 [4, 8] was 4 nM.
With `CC#Cc1c(-c2cnc3ccccc3c2)c2c(N)ncnc2n1C12CCC(NC(=O)c3ccnn3C)(CC1)C2` [Example 33, N-(4-(4-Amino-6-(propyn-1-yl)-5-(quinolin-3-yl)-7H-pyrrolo[2,3-d]pyrimidin-7-yl) -bicyclo[2.2.1]heptan-1-yl)-1-methyl-1H-pyrazole-5-carboxamide] the IC50 [1, 6] was under 0.3 nM, the IC50 [2, 7] was 1.9 nM and the IC50 [3] was 2.3 nM. The IC50 [4, 8] was 1.9 nM.
`C#Cc1c(-c2cnc3ccccc3c2)c2c(N)ncnc2n1C12CCC(NC(=O)c3cnc(N(C)C)cn3)(CC1)C2` [Example 32, N-(4-(4-Amino-6-ethynyl-5-(quinolin-3-yl)-7H-pyrrolo[2,3-d]pyrimidin-7-yl)bicyclo-[2.2.1]heptan-1-yl)-5-(dimethylamino)pyrazine-2-carboxamide] showed an IC50 [1, 6] of under 0.3 nM, an IC50 [2, 7] of 0.59 nM and an IC50 [3] of 0.78 nM. It also gave an IC50 [4, 8] of 1 nM.
For `C#Cc1c(-c2cnc3ccccc3c2)c2c(N)ncnc2n1C12CCC(NC(=O)CN(C)C)(CC1)CC2` [Example 55], the IC50 [1, 6] was under 0.3 nM, the IC50 [2, 7] was 0.86 nM and the IC50 [3] was 1.2 nM. It also gave an IC50 [4, 8] of 1.2 nM.
`C#Cc1c(-c2cnc3ccccc3c2)c2c(N)ncnc2n1C12CCC(N(C)C(=O)c3cnc(C)cn3)(CC1)C2` [Example 57] showed an IC50 [1, 6] of under 0.3 nM, an IC50 [2, 7] of 2.5 nM and an IC50 [3] of 4.4 nM. It also gave an IC50 [4, 8] of 5.9 nM.
`C#Cc1c(-c2cnc3ccccc3c2)c2c(N)ncnc2n1C12CCC(O)(CC1)CC2` [Example 7, 4-(4-Amino-6-ethynyl-5-(quinoiln-3-yl)-7H-pyrrolo[2,3-d]pyrimidin-7-yl)bicyclo-[2.2.2]octan-1-ol] was tested, and the IC50 [1, 6] was 0.8 nM, the IC50 [2, 7] was 2.3 nM and the IC50 [3] was 2.9 nM. The IC50 [4, 8] was 2.5 nM.
In the case of `C#Cc1c(-c2cnc3ccccc3c2)c2c(N)ncnc2n1C12CCC(CNCCF)(CC1)C2` [Example 54, 6-Ethynyl-7-(4-(((2-fluoroethyl)amino)methyl)bicyclo[2.2.1]heptan-1-yl)-5-(quinolin-3-yl)-7H-pyrrolo[2,3-d]pyrimidine-4-amine], the IC50 [1, 6] is reported as under 0.3 nM, the IC50 [2, 7] is reported as 1.5 nM and the IC50 [3] is reported as 2.8 nM. It also gave an IC50 [4, 8] of 6.3 nM.
